The text below walks through data of patent US9302999B2, “Substituted triazoles as herbicides” (E. I. DU PONT DE NEMOURS AND COMPANY, priority 2012, dated 2016).

What all share (type): in vivo
Test [1] has as its system Russian thistle (Salsola kali). The test can be described thus: Test C pre-/postemergence: Russian thistle. The note with it: Preemergence. The source says: Seeds of plant species selected from blackgrass (Alopecurus myosuroides), bromegrass, downy (downy bromegrass, Bromus tectorum), foxtail, green (green foxtail, Setaria viridis), ryegrass, Italian (Italian ryegrass, Lolium multiflorum), winter wheat (Triticum aestivum), wild oat (Avena fatua), galium (catchweed bedstraw, Galium aparine), bermudagrass (Cynodon dactylon), surinam grass (Brachiaria decumbens), cocklebur (common cocklebur, Xanthium strumarium), corn (Zea mays), large crabgrass (Digitaria sanguinalis), woolly cupgrass (Eriochloa villosa), foxtail, giant (giant foxtail, Setaria faberii), goosegrass (Eleusine indica), johnsongrass (Sorghum halepense), kochia (Kochia scoparia), lambsquarters (Chenopodium album), morningglory (Ipomoea coccinea), nightshade (eastern black nightshade, Solanum ptycanthum), nutsedge, yellow (yellow nutsedge, Cyperus esculentus), pigweed (Amaranthus retroflexus), ragweed (common ragweed, Ambrosia elation), soybean (Glycine max), common (oilseed) sunflower (Helianthus annuus), Russian thistle (Salsola kali) and velvetleaf (Abutilon theophrasti) were planted into a blend of loam soil and sand and treated preemergence with test chemicals formulated in a non-phytotoxic solvent mixture which included a surfactant.
At the same time, plants selected from these crop and weed species and also barley (winter barley, Hordeum vulgare), canarygrass (Phalaris minor), chickweed (common chickweed, Stellaria media) windgrass (Apera spica-venti) and deadnettle (henbit deadnettle, Lamium amplexicaule) were planted in pots containing Redi-Earth® planting medium (Scotts Company, 14111 Scottslawn Road, Marysville, Ohio 43041) comprising spaghnum peat moss, vermiculite, wetting agent and starter nutrients and treated with postemergence applications of test chemicals formulated in the same manner. Plants ranged in height from 2 to 18 cm (1- to 4-leaf stage) for postemergence treatments.
Treated plants and controls were maintained in a greenhouse for 13 to 15 days, after which time all species were compared to controls and visually evaluated. Plant response ratings, summarized in Table C, are based on a scale of 0 to 100 where 0 is no effect and 100 is complete control. A dash (-) response means no test result.

Test [2] deals with foxtail, green (green foxtail, Setaria viridis). As to the kind of experiment: Test D pre-/postemergence: foxtail, green. Particulars: Postemergence; for Plant response rating, Foxtail, Green: 16 g ai/ha, scale 0 to 100. The source says:
(§1) Seeds of plant species selected from bluegrass (annual bluegrass, Poa annua), blackgrass (Alopecurus myosuroides), canarygrass (Phalaris minor), chickweed (common chickweed, Stellaria media), galium (catchweed bedstraw, Galium aparine), bromegrass, downy (downy bromegrass, Bromus tectorum), field poppy (Papaver rhoeas), field violet (Viola arvensis), foxtail, green (green foxtail, Setaria viridis), deadnettle (henbit deadnettle, Lamium amplexicaule), ryegrass, Italian (Italian ryegrass, Lolium multiflorum), kochia (Kochia scoparia), lambsquarters (Chenopodium album), oilseed rape (Brassica napus), pigweed (Amaranthus retroflexus), Russian thistle (Salsola iberica), chamomile (scentless chamomile, Matricaria inodora), speedwell (bird's-eye speedwell, Veronica persica), barley, spring (spring barley, Hordeum vulgare), wheat, spring (spring wheat, Triticum aestivum), buckwheat, wild (wild buckwheat, Polygonum convolvulus), mustard, wild (wild mustard, Sinapis arvensis), oat, wild (wild oat, Avena fatua), radish, wild (wild radish, Raphanus raphanistrum), windgrass (Apera spica-venti), barley, winter (winter barley, Hordeum vulgare), and wheat, winter (winter wheat, Triticum aestivum) were planted into a silt loam soil and treated preemergence with test chemicals formulated in a non-phytotoxic solvent mixture which included a surfactant. At the same time, these same crop and weed species were planted in pots containing the planting medium comprising spaghnum peat moss, vermiculite, wetting agent and starter nutrients and treated with postemergence applications of the test chemicals formulated in the same manner. Plants ranged in height from 2 to 18 cm (1- to 4-leaf stage).
(§2) Treated plants and controls were maintained in a controlled growth environment for 14 to 21 days after which time all species were compared to controls and visually evaluated. Plant response ratings, summarized in Table D, are based on a scale of 0 to 100 where 0 is no effect and 100 is complete control. A dash (-) response means no test result.

Test [3] deals with blackgrass (Alopecurus myosuroides). As to the kind of experiment: Test D pre-/postemergence: blackgrass. The note with it: Postemergence; for Plant response rating, Blackgrass: 16 g ai/ha, scale 0 to 100.
From the text: as §1, §2

Test [4] relates to deadnettle (henbit deadnettle, Lamium amplexicaule). The test can be described thus: Test D pre-/postemergence: deadnettle. The note with it: Postemergence; for Plant response rating, Deadnettle: 16 g ai/ha, scale 0 to 100.
From the text: as §1, §2

Test [5] has as its system lambsquarters (Chenopodium album). As to the kind of experiment: Test D pre-/postemergence: lambsquarters. Particulars: Postemergence; for Plant response rating, Lambsquarters: 16 g ai/ha, scale 0 to 100.
From the text: as §1, §2

Test [6] relates to wheat, winter (winter wheat, Triticum aestivum). The test can be described thus: Test D pre-/postemergence: wheat, winter. The note with it: Postemergence; for Plant response rating, Wheat, Winter: 16 g ai/ha, scale 0 to 100.
From the text: as §1, §2

Test [7] deals with wheat, spring (spring wheat, Triticum aestivum). The test can be described thus: Test D pre-/postemergence: wheat, spring. Particulars: Postemergence; for Plant response rating, Wheat, Spring: 16 g ai/ha, scale 0 to 100.
From the text: as §1, §2

A further test has as its system rice (Oryza sativa). As to the kind of experiment: Test C flooded paddy test: rice. Particulars: scale 0 to 100 (0 no effect, 100 complete control). In short, it runs like this: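 2-leaf stage plants; pots flooded 3 cm above soil; compound applied into paddy water, depth maintained. Greenhouse 13–15 d. Visual rating vs controls, 0–100 (0 = no effect, 100 = complete control); dash = no result.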

The mark [8] stands for this setting: 31 g ai/ha, scale of 0 to 100, 0 is no effect, 100 is complete control.
Setting [9] is: 62 g ai/ha, scale of 0 to 100, 0 is no effect, 100 is complete control.
Setting [10] is: 125 g ai/ha, scale 0 to 100, 0 no effect, 100 complete control.
The mark [11] stands for this setting: 250 g ai/ha, scale 0 to 100, 0 no effect, 100 complete control.
Where [12] appears, read: 31 g ai/ha, scale 0 to 100 (0 no effect, 100 complete control).
Setting [13] is: 62 g ai/ha, scale 0 to 100 (0 no effect, 100 complete control).
[14] abbreviates: 250 g ai/ha, scale 0 to 100 (0 no effect, 100 complete control).

As for `Cc1nn(-c2ccc(F)cc2F)nc1Oc1ccnc(C(F)(F)F)c1` [Compound 146], the “Plant response rating, Russian Thistle” value in test [1] (setting [8]) was 0; in test [1] (setting [9]), 0; in test [1] (setting [10]), 80; in test [1] (setting [11]), 95.
In the case of `FC(F)Oc1nn(-c2ccc(C(F)(F)F)cc2)nc1Cc1ccnc(C(F)(F)F)c1` [Compound 26], the “Plant response rating, Russian Thistle” value was determined as 80 in test [1] (setting [9]), 95 in test [1] (setting [10]) and 95 in test [1] (setting [11]).
As for `COc1nn(-c2cccc(F)c2)nc1Cc1ccnc(C(F)(F)F)c1` [Compound 139], the “Plant response rating, Russian Thistle” value in test [1] (setting [11]) turned out to be 5.
On to `Cc1nn(-c2ccc(C(F)(F)F)cn2)nc1Oc1ccnc(C(F)(F)F)c1` [Compound 23], for which the “Plant response rating: Foxtail, Green” value in test [2] (setting [12]) is 15; in test [2] (setting [13]), 20; in test [2] (setting [10]), 25; in test [2] (setting [14]) it was 25. Moreover, the “Plant response rating, Foxtail, Green” value in test [2] was determined as 15. Moreover, the “Plant response rating: Blackgrass” value in test [3] (setting [12]) came out at 10; in test [3] (setting [13]), 10; in test [3] (setting [10]) it was 20; in test [3] (setting [14]), 30. Besides, the “Plant response rating, Blackgrass” value in test [3] was 5. For the same compound, the “Plant response rating: Deadnettle” value in test [4] (setting [12]) amounted to 30; in test [4] (setting [13]) it was 50; in test [4] (setting [10]), 60; in test [4] (setting [14]), 90. Besides, the “Plant response rating, Deadnettle” value in test [4] worked out at 20. Further, the “Plant response rating: Lambsquarters” value in test [5] (setting [12]) worked out at 30; in test [5] (setting [13]), 80; in test [5] (setting [10]) it was 100; in test [5] (setting [14]) it was 100. In test [5], the “Plant response rating, Lambsquarters” value worked out at 30. In addition, the “Plant response rating: Wheat, Winter” value in test [6] (setting [12]) was 5; in test [6] (setting [13]) it was 10; in test [6] (setting [10]) it was 15; in test [6] (setting [14]), 15. Moreover, the “Plant response rating, Wheat, Winter” value in test [6] amounted to 0. Besides, the “Plant response rating: Wheat, Spring” value in test [7] (setting [12]) was determined as 5; in test [7] (setting [13]), 10; in test [7] (setting [10]), 10; in test [7] (setting [14]) it was 15. For the same compound, the “Plant response rating, Wheat, Spring” value in test [7] was 0. Besides, the “Plant response rating, Rice” value is given as 0 with rice (Oryza sativa) (Flood (flooded paddy test), 62 g ai/ha, visual rating after 13 to 15 days); 0 in the test with rice (Oryza sativa) (Flood (flooded paddy test), 125 g ai/ha, visual rating after 13 to 15 days); 30 with rice (Oryza sativa) (Flood (flooded paddy test), 250 g ai/ha, visual rating after 13 to 15 days); 0 with rice (Oryza sativa) (Flood, 31 g ai/ha).
For the compound `Fc1ccc(-n2nc(Cc3ccnc(C(F)(F)F)c3)c(OC(F)F)n2)cc1` [Compound 25], the “Plant response rating, Russian Thistle” value in test [1] (setting [8]) was 0; in test [1] (setting [10]), 90; in test [1] (setting [11]), 90.
Consider `COc1nn(-c2ccc(C(F)(F)F)cc2)nc1Cc1ccnc(C(F)F)c1` [Compound 138], for which the “Plant response rating: Foxtail, Green” value was 40 in test [2] (setting [12]), 75 in test [2] (setting [13]), 80 in test [2] (setting [10]) and 100 in test [2] (setting [14]). Moreover, the “Plant response rating, Foxtail, Green” value in test [2] is recorded as 20. Moreover, the “Plant response rating: Blackgrass” value is given as 50 in test [3] (setting [12]), 70 in test [3] (setting [13]), 80 in test [3] (setting [10]) and 85 in test [3] (setting [14]). Also, the “Plant response rating, Blackgrass” value in test [3] was found to be 30. Further, the “Plant response rating: Deadnettle” value in test [4] (setting [12]) is 50; in test [4] (setting [13]) it was 75; in test [4] (setting [10]) it was 80; in test [4] (setting [14]), 95. The “Plant response rating, Deadnettle” value in test [4] was determined as 50. The “Plant response rating: Lambsquarters” value in test [5] (setting [12]) was 80; in test [5] (setting [13]), 90; in test [5] (setting [10]), 95; in test [5] (setting [14]) it was 100. For the same compound, the “Plant response rating, Lambsquarters” value in test [5] worked out at 70. The “Plant response rating, Russian Thistle” value in test [1] (setting [8]) is reported as 85; in test [1] (setting [9]), 90; in test [1] (setting [10]), 90; in test [1] (setting [11]), 100. In addition, the “Plant response rating: Wheat, Winter” value in test [6] (setting [12]) is listed as 20; in test [6] (setting [13]), 20; in test [6] (setting [10]), 20; in test [6] (setting [14]) it was 25. For the same compound, the “Plant response rating, Wheat, Winter” value in test [6] is on record as 10. In addition, the “Plant response rating: Wheat, Spring” value in test [7] (setting [12]) amounted to 5; in test [7] (setting [13]) it was 10; in test [7] (setting [10]), 25; in test [7] (setting [14]), 35. Besides, the “Plant response rating, Wheat, Spring” value in test [7] is 5.
